Reference: patent publication US20050143336A1 (priority 2003, published 2005)

Tests used:
[1] = system: C3H mice; assay: Survival of mice given p38MAPK or pJNK inhibitor before FUS1-nanoparticles; format: in vivo
Description: The amount of FUS1 plasmid DNA delivered was 100 μg. Animals were injected intravenously with FUS1-nanoparticles and animal survival monitored for 25 days.

[2] = system: p44/42 MAPK; conditions: MRC-9 cells, 10, 30 μM prior to FUS1-nanoparticles
Description: In vitro experiments. To determine the effect of FUS1-nanoparticles on the activation of signaling molecules associated with inflammation, MRC-9 fibroblast cells were seeded in six-well plates (5×10^5 cells/well) and incubated overnight at 37° C. and 5% CO2. […] Two-three hours after treatment, cells were transfected with FUS1-nanoparticles (2.5 μg DNA) in 0.2% serum medium. Cells were harvested at different time-points (2 h, 4 h, 15 h) after transfection, washed, and cell lysates prepared as previously described (Ramesh et al., 2001a). Untransfected cells treated with PBS served as control in these experiments. Cell lysates were subjected to western blotting analysis and probed with various antibodies as previously described (Ramesh et al., 2001b; Ito et al., 2003). In all the experiments, β-actin was detected using anti-β-actin antibody (Sigma Chemicals, St. Louis, Mo.) as a measure of internal loading control.

[3] = inhibitor 15 mg/kg intraperitoneally 24 h and 3 h prior to FUS1-nanoparticles (100 μg DNA) i.v., monitored 25 days

Question: `C[S+]([O-])c1ccc(-c2nc(-c3ccncc3)c(-c3ccc(F)cc3)[nH]2)cc1` (stereo not shown) [SB 203580] was tested. Which survival [1, 3] did it give?
Answer: 100%

Question: What about the “survival” value ([1]; two i.p. doses at 24 h and 3 h before complex) of the same compound?
Answer: Prolonged survival

Question: With `N#CC(=C(/N)Sc1ccccc1N)/C(C#N)=C(\N)Sc1ccccc1N` [U0126] as the compound, how does the “p44/42 MAPK expression and downstream substrates” value [2] read?
Answer: significant inhibition

Question: With `O=C1c2ccccc2-c2n[nH]c3cccc1c23` [pJNK inhibitor] as the compound, how does the survival [1, 3] read?
Answer: 33%
